Source: patent publication US20160002247A1, “8-SUBSTITUTED IMIDAZOPYRIMIDINONE DERIVATIVE HAVING AUTOTAXIN INHIBITORY ACTIVITY” (THE UNIVERSITY OF TOKYO, priority 2013, published 2016)

Tests used:
Mouse autotaxin enzyme = biological target: T1, Mouse autotaxin enzyme (Mus musculus, UniProt Q9R1E6); assay: Evaluation of autotaxin inhibitor, Method A (Test Example 1): TG-mTMP fluorescence; assay type: biochemical; details: Assay Method: Method A (Test Example 1); read-out: Inhibitory Activity (Enzyme Inhibitory Activity, IC50)
T1 construct: purchased R&D System
Protocol: (Method A) Evaluation of Autotaxin Inhibitor
Solution A containing 25 mM Tris-HCl buffer (pH7.5), 100 mM NaCl, 5 mM MgCl2 and 0.1% BSA was prepared. Mouse autotaxin enzyme (purchased from R&D System) was diluted with Solution A, and 5 μL of which was added to a solution of test compound in DMSO. Furthermore, 5 μl of 0.5 μM TG-mTMP in Solution A was added and allowed to react at room temperature for 2 hours. 5 μl of 150 mM EDTA in Solution A was added to quench the reaction, and a fluorescent dye TokyoGreen, which was produced by the reaction, was detected. The fluorescence was detected using ViewLux (PerkinElmer, Inc.) with an excitation wavelength of 480 nm and a fluorescence wavelength of 540 nm.
The percent inhibition of the test compound was calculated by assuming the sample with no test compound as 0% inhibition and the sample with no enzyme as 100% inhibition, and the percent inhibitions at different concentrations of the test compound were plotted to obtain a concentration-dependent curve.

Human autotaxin enzyme = biological target: T2, Human autotaxin enzyme (Homo sapiens, UniProt Q13822); assay: Evaluation of autotaxin inhibitor, Method B (Test Example 2): TG-mTMP fluorescence; assay type: biochemical; details: Assay Method B (Test Example 2), human autotaxin; read-out: Inhibitory Activity (autotaxin enzyme inhibitory activity, IC50 class)
T2 construct: purchased R&D System
Outline: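 Human autotaxin in Tris-HCl pH 7.5 buffer with NaCl, MgCl2 and 0.1% BSA was reacted with TG-mTMP (0.5 μM solution added) and test compound for 2 hours at room temperature.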

Compound	IC50 (Mouse autotaxin enzyme)	IC50 (Human autotaxin enzyme)
Cc1cc(=O)n2cc(-c3ccc(Cl)cc3)nc2n1C [Compound 4]	100 to 1000 nM	–
CCn1c(C)cc(=O)n2cc(-c3ccc(Cl)cc3)nc12 [Compound 5]	10 to 100 nM	–
CCCn1c(C)cc(=O)n2cc(-c3ccc(Cl)cc3)nc12 [Compound 6]	10 to 100 nM	–
CCCCCCCn1c(C)cc(=O)n2cc(-c3ccc(Cl)cc3)nc12 [Compound 9]	10 to 100 nM	–
CCCCCCCCn1c(C)cc(=O)n2cc(-c3ccc(Cl)cc3)nc12 [Compound 10]	10 to 100 nM	–
CCCCCCCCCn1c(C)cc(=O)n2cc(-c3ccc(Cl)cc3)nc12 [Compound 11]	100 to 1000 nM	–
CCCCCCCCCCn1c(C)cc(=O)n2cc(-c3ccc(Cl)cc3)nc12 [Compound 12]	100 to 1000 nM	–
Cc1cc(=O)n2cc(-c3ccc(Cl)cc3)nc2n1C1CCCCC1 [Compound 14]	10 to 100 nM	–
C=CCn1c(C)cc(=O)n2cc(-c3ccc(Cl)cc3)nc12 [Compound 15]	10 to 100 nM	–
C#CCn1c(C)cc(=O)n2cc(-c3ccc(Cl)cc3)nc12 [Compound 16]	10 to 100 nM	–
CCCCCn1c(C)cc(=O)n2cc(-c3ccc(F)cc3)nc12 [Compound 17]	10 to 100 nM	–
CCCCCn1c(C)cc(=O)n2cc(-c3ccc(C)cc3)nc12 [Compound 19]	10 to 100 nM	–
COC(=O)Cn1c(C)cc(=O)n2cc(-c3ccc(Cl)cc3)nc12 [Compound 21]	10 to 100 nM	–
Cc1cc(=O)n2cc(-c3ccc(Cl)cc3)nc2n1CC(=O)OCc1ccccc1 [Compound 22]	10 to 100 nM	–
Cc1cc(=O)n2cc(-c3ccc(Cl)cc3)nc2n1CC(=O)OC(C)(C)C [Compound 23]	10 to 100 nM	–
CCCCCn1c(Oc2ccc(-c3ccccc3)cc2)cc(=O)n2cc(-c3ccc(Cl)cc3)nc12 [Compound 265]	–	> 1000 nM
CCCCCn1c(Oc2ccc(C(=O)CC)cc2)cc(=O)n2cc(-c3ccc(Cl)cc3)nc12 [Compound 266]	–	100 to 1000 nM
CCCCCn1c(OC23CCC(CC2)CC3)cc(=O)n2cc(-c3ccc(Cl)cc3)nc12 [Compound 267]	–	100 to 1000 nM
CCCCCn1c(Oc2nccs2)cc(=O)n2cc(-c3ccc(Cl)cc3)nc12 [Compound 268]	–	< 10 nM
CCCCCn1c(OCCOC)cc(=O)n2cc(-c3ccc(Cl)cc3)nc12 [Compound 269]	–	< 10 nM
CCCCCn1c(OC(C)(C)C)cc(=O)n2cc(-c3ccc(Cl)cc3)nc12 [Compound 270]	–	100 to 1000 nM
C#CCCCCCCCCCOc1cc(=O)n2cc(-c3ccc(Cl)cc3)nc2n1CCCCC [Compound 271]	–	> 1000 nM
CCCCCn1c(OC(C)C)cc(=O)n2cc(-c3ccc(Cl)cc3)nc12 [Compound 272]	–	10 to 100 nM
CCCCCn1c(Oc2ccccn2)cc(=O)n2cc(-c3ccc(Cl)cc3)nc12 [Compound 273]	–	100 to 1000 nM
CCCCCn1c(N2CC(O)C2)cc(=O)n2cc(-c3ccc(Cl)cc3)nc12 [Compound 274]	–	< 10 nM

Compound	IC50 (Mouse autotaxin enzyme)	IC50 (Human autotaxin enzyme)
CCCCCn1c(N2CCCC2CCCC)cc(=O)n2cc(-c3ccc(Cl)cc3)nc12 (centres unmarked) [Compound 277]	–	10 to 100 nM
CCCCCn1c(N2CCCC2CCCc2ccccc2)cc(=O)n2cc(-c3ccc(Cl)cc3)nc12 (centres unmarked) [Compound 278]	–	10 to 100 nM
CCCCCn1c(N2CCCC2CCC2CCCCC2)cc(=O)n2cc(-c3ccc(Cl)cc3)nc12 (centres unmarked) [Compound 279]	–	10 to 100 nM
CCCCCn1c(N2CCCC2C(C)CCC)cc(=O)n2cc(-c3ccc(Cl)cc3)nc12 (centres unmarked) [Compound 280]	–	10 to 100 nM
O=C(O)C1CCN(c2cc(=O)n3cc(-c4ccc(Cl)cc4)nc3n2CCCC(F)(F)F)CC1 [Compound 283]	–	< 10 nM
N#Cc1ccc(-c2cn3c(=O)cc(N4CCC(C(=O)O)CC4)n(CCCC(F)(F)F)c3n2)cc1 [Compound 285]	–	< 10 nM
N#CCCCCn1c(NCc2ccc(C(=O)O)cc2)cc(=O)n2cc(-c3ccc(Cl)cc3)nc12 [Compound 286]	–	< 10 nM
O=C(O)c1ccc(CNc2cc(=O)n3cc(-c4ccc(Cl)cc4)nc3n2CCCC(F)(F)F)cc1 [Compound 287]	–	< 10 nM
N#Cc1ccc(-c2cn3c(=O)cc(NCc4ccc(C(=O)O)cc4)n(CCCC(F)(F)F)c3n2)cc1 [Compound 289]	–	< 10 nM
CCCCCn1c(-c2ccccc2)cc(=O)n2cc(-c3ccc(Cl)cc3)nc12 [Compound 366]	–	10 to 100 nM
CCCCCn1c(CO)cc(=O)n2cc(-c3ccc(Cl)cc3)nc12 [Compound 367]	–	< 10 nM
CCCCCn1c(-c2ccc(F)cc2)cc(=O)n2cc(-c3ccc(Cl)cc3)nc12 [Compound 368]	–	< 10 nM
CCCCCn1c(CCC)cc(=O)n2cc(-c3ccc(Cl)cc3)nc12 [Compound 369]	–	< 10 nM
CCCCCn1c(C=O)cc(=O)n2cc(-c3ccc(Cl)cc3)nc12 [Compound 370]	–	< 10 nM
CCCCCn1c(COCc2ccccc2)cc(=O)n2cc(-c3ccc(Cl)cc3)nc12 [Compound 371]	–	10 to 100 nM
CCCCCn1c(C(=O)O)cc(=O)n2cc(-c3ccc(Cl)cc3)nc12 [Compound 372]	–	10 to 100 nM
CCCCCn1c(-c2ccc(C(=O)NCCN3CCOCC3)cc2)cc(=O)n2cc(-c3ccc(Cl)cc3)nc12 [Compound 374]	–	< 10 nM
N#CCCCCn1c(-c2ccc(C(N)=O)cc2)cc(=O)n2cc(-c3ccc(Cl)cc3)nc12 [Compound 379]	–	< 10 nM
N#CCCCCn1c(-c2ccc(C(=O)NCCN3CCOCC3)cc2)cc(=O)n2cc(-c3ccc(Cl)cc3)nc12 [Compound 380]	–	< 10 nM
CN(C)CCNC(=O)c1ccc(-c2cc(=O)n3cc(-c4ccc(C#N)cc4)nc3n2CCCCC#N)cc1 [Compound 384]	–	< 10 nM
N#CCCCCn1c(-c2ccc(C(N)=O)cc2)cc(=O)n2cc(-c3ccc(C#N)cc3)nc12 [Compound 385]	–	< 10 nM
N#CCCCCn1c(-c2ccc(C(=O)NCCN3CCOCC3)cc2)cc(=O)n2cc(-c3ccc(C#N)cc3)nc12 [Compound 386]	–	< 10 nM
N#Cc1ccc(-c2cn3c(=O)cc(-c4ccc(C(=O)NCCN5CCOCC5)cc4)n(CCCC(F)(F)F)c3n2)cc1 [Compound 389]	–	< 10 nM
CCCCCn1c(-c2cc3ccccc3o2)cc(=O)n2cc(-c3ccc(Cl)cc3)nc12 [Compound 392]	–	100 to 1000 nM
CCCCCn1c(-c2cc3ccccc3s2)cc(=O)n2cc(-c3ccc(Cl)cc3)nc12 [Compound 393]	–	10 to 100 nM

Compound	IC50 (Mouse autotaxin enzyme)	IC50 (Human autotaxin enzyme)
CCCCCn1c(-c2ccccc2OC)cc(=O)n2cc(-c3ccc(Cl)cc3)nc12 [Compound 395]	–	10 to 100 nM
CCCCCn1c(-c2cccc(OC)c2)cc(=O)n2cc(-c3ccc(Cl)cc3)nc12 [Compound 396]	–	10 to 100 nM
CCCCCn1c(-c2ccc(OC)cc2)cc(=O)n2cc(-c3ccc(Cl)cc3)nc12 [Compound 397]	–	< 10 nM
CCCCCn1c(/C=C/c2ccccc2)cc(=O)n2cc(-c3ccc(Cl)cc3)nc12 [Compound 398]	–	10 to 100 nM
CCCCCn1c(-c2ccc(N(C)C)cc2)cc(=O)n2cc(-c3ccc(Cl)cc3)nc12 [Compound 399]	–	10 to 100 nM
CCCCCn1c(-c2ccc(C#N)cc2)cc(=O)n2cc(-c3ccc(Cl)cc3)nc12 [Compound 400]	–	< 10 nM
CCCCCn1c(-c2ccc(C(=O)N(C)C)cc2)cc(=O)n2cc(-c3ccc(Cl)cc3)nc12 [Compound 402]	–	< 10 nM
CCCCCn1c(-c2ccoc2)cc(=O)n2cc(-c3ccc(Cl)cc3)nc12 [Compound 403]	–	10 to 100 nM
CCCCCn1c(-c2ccc(COC)cc2)cc(=O)n2cc(-c3ccc(Cl)cc3)nc12 [Compound 404]	–	< 10 nM
CCCCCn1c(C2=CCCCC2)cc(=O)n2cc(-c3ccc(Cl)cc3)nc12 [Compound 408]	–	10 to 100 nM
CCCCCn1c(-c2ccncc2)cc(=O)n2cc(-c3ccc(Cl)cc3)nc12 [Compound 410]	–	< 10 nM
CCCCCn1c(-c2ccc(O)cc2)cc(=O)n2cc(-c3ccc(Cl)cc3)nc12 [Compound 411]	–	< 10 nM
C/C=C/c1cc(=O)n2cc(-c3ccc(Cl)cc3)nc2n1CCCCC [Compound 414]	–	10 to 100 nM
CCCCCn1c(/C=C/C(C)(C)C)cc(=O)n2cc(-c3ccc(Cl)cc3)nc12 [Compound 415]	–	10 to 100 nM
CCCCCn1c(-c2ccc(N3CCN(C)CC3)cc2)cc(=O)n2cc(-c3ccc(Cl)cc3)nc12 [Compound 416]	–	< 10 nM
CCCCCn1c(-c2cc[nH]n2)cc(=O)n2cc(-c3ccc(Cl)cc3)nc12 [Compound 417]	–	10 to 100 nM
CCCCCn1c(-c2cscn2)cc(=O)n2cc(-c3ccc(Cl)cc3)nc12 [Compound 418]	–	10 to 100 nM
CCCCCn1c(-c2ccc(NCC(C)C)nc2)cc(=O)n2cc(-c3ccc(Cl)cc3)nc12 [Compound 419]	–	< 10 nM
CCCCCn1c(-c2ccc(N(C)CC3CCCCO3)cc2)cc(=O)n2cc(-c3ccc(Cl)cc3)nc12 (centres unmarked) [Compound 420]	–	10 to 100 nM
CCCCCn1c(-c2ccc(N3CCOCC3)cc2)cc(=O)n2cc(-c3ccc(Cl)cc3)nc12 [Compound 421]	–	10 to 100 nM
CCCCCn1c(-c2ccc(N)cc2)cc(=O)n2cc(-c3ccc(Cl)cc3)nc12 [Compound 422]	–	10 to 100 nM
CCCCCn1c(/C=C/COC)cc(=O)n2cc(-c3ccc(Cl)cc3)nc12 [Compound 423]	–	10 to 100 nM
CCCCCn1c(-c2cnc(N)cn2)cc(=O)n2cc(-c3ccc(Cl)cc3)nc12 [Compound 424]	–	< 10 nM
CCCCCn1c(-n2ccccc2=O)cc(=O)n2cc(-c3ccc(Cl)cc3)nc12 [Compound 426]	–	< 10 nM
